Results published in patent US20090081197A1 (Palatin Technologies, Inc., priority 2007, published 2009).
Non-standard residues stand in square brackets, D forms with d. Residues, ends and D or L forms follow the SMILES beside them. *: point of attachment. dPhe(4-Cl) = N[C@H](Cc1ccc(Cl)cc1)C(=O)O; Ahp = NCCCCCCC(=O)O; Bn = c1ccc(C*)cc1

Assays:
MC3-R = MC3-R (Homo sapiens, UniProt P41968); assay: Competitive inhibition assay using [I^125]-NDP-α-MSH, hMC3-R membranes; assay type: binding; design: expressed in transfected cells; conditions: 1 μM test compound; read-out: Inhibition at 1 μM (NDP-α-MSH) In Normal System, MC3-R
In short: (§1)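 Tracer was 0.4 nM for MC3-R and MC5-R, 0.2 nM for MC4-R and 0.1 nM for MC1-R. Bound radioactivity was gamma-counted after filtration; values are triplicate means, with results below 0% reported as 0%.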

MC5-R = MC5-R (Homo sapiens, UniProt P33032); assay: Competitive inhibition assay using [I^125]-NDP-α-MSH, hMC5-R membranes; assay type: binding; design: expressed in transfected cells; conditions: 1 μM test compound; read-out: Inhibition at 1 μM (NDP-α-MSH) In Normal System, MC5-R
In short: as §1

MC4-R [1] = biological target: T1, MC4-R (Homo sapiens, UniProt P32245); assay: cAMP functional activity assay in HEK-293 cells, normal system; assay type: cell-based; design: expressed in transfected cells; host or cells: HEK-293; conditions: for intrinsic activity at MC4-R in a normal system: normal receptor density system, NDP-α-MSH = 1.0
MC1-R = biological target: T2, MC1-R (Mus musculus, UniProt Q01727); assay: Competitive inhibition assay using [I^125]-NDP-α-MSH, B-16 mouse melanoma cell membranes; assay type: binding; conditions: for inhibition at 1 µM: 1 μM test compound, read-out: Inhibition at 1 μM (NDP-α-MSH) In Normal System, MC1-R
T2 construct: B-16 mouse melanoma cells (containing MC1-R); endogenous in cells
In short: as §1

MC4-R [2] = biological target: T1, MC4-R; assay: Competitive inhibition assay using [I^125]-NDP-α-MSH, hMC4-R membranes; assay type: binding; design: host or cells: TREx-293 (HEK-293 stably expressing Tet repressor); conditions: 1 μM test compound; read-out: Inhibition at 1 μM (NDP-α-MSH) In Normal System, MC4-R
In short: as §1

[3] = IV and IP food intake and body weight change, rats; assay type: in vivo; conditions: rat, IV
In short: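 Male Sprague-Dawley rats dosed IV (0.5-3, up to 10 mg/kg) or IP (0.5-10, up to 50 mg/kg); male C57BL/6 mice dosed IP. Change in food intake and body weight over 24 h post-dose versus 1-week vehicle baseline, with 48 and 72 h reversal checks.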

[4] = Penile erection induction in male rats; assay type: in vivo; conditions: rat
In short: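 Male Sprague-Dawley rats (200-250 g), groups of 4-8, dosed IV or ICV at various doses and observed individually for penile erections. Only statistically relevant increases over vehicle-control mean PEs count as induction; IV responses below 1.0 PEs/rat treated as equivocal, some retested ICV.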

[5] = ICV food intake and body weight change; assay type: in vivo; conditions: rat, 1 nmol, 24 hours
In short: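 Rats fitted with intracerebroventricular cannulas and fed ad libitum got a single ICV dose of vehicle or compound (1-3 nmol). Food intake and body-weight change over the 24 h after dosing were compared with a 1-week vehicle baseline. Values at 48 h and 72 h were also recorded to follow return to baseline.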

T2 sequence (Q01727 whole entry): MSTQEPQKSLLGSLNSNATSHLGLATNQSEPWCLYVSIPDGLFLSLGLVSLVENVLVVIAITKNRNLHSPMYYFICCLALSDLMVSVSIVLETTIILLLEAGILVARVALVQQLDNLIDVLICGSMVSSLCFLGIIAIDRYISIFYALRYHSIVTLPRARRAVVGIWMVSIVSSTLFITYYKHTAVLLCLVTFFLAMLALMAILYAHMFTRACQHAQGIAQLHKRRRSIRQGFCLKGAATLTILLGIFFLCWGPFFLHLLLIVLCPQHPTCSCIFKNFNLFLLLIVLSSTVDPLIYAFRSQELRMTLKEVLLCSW
T1 sequence (P32245 whole entry): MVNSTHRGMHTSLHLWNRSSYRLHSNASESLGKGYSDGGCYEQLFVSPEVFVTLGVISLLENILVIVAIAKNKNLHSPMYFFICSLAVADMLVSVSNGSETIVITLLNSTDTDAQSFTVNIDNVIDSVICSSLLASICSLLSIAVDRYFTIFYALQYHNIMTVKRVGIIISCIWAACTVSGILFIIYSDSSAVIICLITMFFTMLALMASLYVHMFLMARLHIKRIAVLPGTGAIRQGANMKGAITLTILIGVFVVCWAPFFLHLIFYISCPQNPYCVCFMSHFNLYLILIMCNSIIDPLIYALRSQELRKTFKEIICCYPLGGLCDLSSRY
Chain of MC3-R (P41968 whole entry): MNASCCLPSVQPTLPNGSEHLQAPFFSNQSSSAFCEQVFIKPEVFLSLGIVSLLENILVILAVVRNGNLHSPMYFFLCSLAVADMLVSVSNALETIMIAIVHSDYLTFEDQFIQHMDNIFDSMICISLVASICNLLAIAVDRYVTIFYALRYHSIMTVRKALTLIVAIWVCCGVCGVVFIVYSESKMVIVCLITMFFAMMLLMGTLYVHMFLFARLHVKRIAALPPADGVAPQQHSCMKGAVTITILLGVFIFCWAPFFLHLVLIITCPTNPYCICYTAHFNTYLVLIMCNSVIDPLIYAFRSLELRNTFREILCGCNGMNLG
Chain of MC5-R (P33032 whole entry): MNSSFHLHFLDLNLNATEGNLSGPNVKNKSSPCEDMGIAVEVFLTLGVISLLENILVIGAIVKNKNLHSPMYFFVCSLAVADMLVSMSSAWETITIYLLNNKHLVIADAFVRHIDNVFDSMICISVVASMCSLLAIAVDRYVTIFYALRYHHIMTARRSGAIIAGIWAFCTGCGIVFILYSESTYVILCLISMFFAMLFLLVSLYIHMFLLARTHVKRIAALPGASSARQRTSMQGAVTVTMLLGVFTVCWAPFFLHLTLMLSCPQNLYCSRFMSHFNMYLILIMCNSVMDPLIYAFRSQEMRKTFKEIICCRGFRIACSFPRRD

With `N=C(N)NCCC[C@H](NC(=O)[C@@H](Cc1ccc(Cl)cc1)NC(=O)[C@H](COCc1ccccc1)NC(=O)CCCCCCN)C(=O)N[C@@H](Cc1c[nH]c2ccccc12)C(=O)N[C@@H](CC(=O)O)C(N)=O` [Example 13, NH2—(CH2)6—C(═O)-Ser(Bzl)-D-Phe(4-Cl)-Arg-Trp-Asp-NH2] (H-[Ahp]S(Bn)[dPhe(4-Cl)]RWD-NH2) the inhibition at 1 µM (MC3-R) was 73%, the inhibition at 1 µM (MC5-R) was 48% and the “intrinsic activity at MC4-R in a normal system” value (MC4-R [1]) was 0.5. The inhibition at 1 µM (MC1-R) was 35%, the inhibition at 1 µM (MC4-R [2]) was 98% and the “24 hour decrease in food intake” value ([3]; dose not stated) was 6%. For the same molecule, the “decrease in body weight” value ([3]; dose not stated, 24 hours) was 1%, the “Penile Erection IV” value ([4]; IV) was “No” and the penile erection response ([4]; IV) was “no penile erections”. For the same molecule, the “decrease in body weight” value [5] was 2.1% and the “decrease in food intake” value [5] was 25.7%.

With `N=C(N)NCCC[C@H]1CN(CCc2ccc3ccccc3c2)CCN1C(=O)[C@H](N)Cc1ccc(Cl)cc1Cl` [Example 17, N-{3-[(S)-1-[(R)-2-Amino-3-(2,4-dichloro-phenyl)-propionyl]-4-(2-naphthalen-2-yl-ethyl)-piperazin-2-yl]-propyl}-guanidine] the inhibition at 1 µM (MC3-R) was 87%, the inhibition at 1 µM (MC5-R) was 75% and the “intrinsic activity at MC4-R in a normal system” value (MC4-R [1]) was 0.4. For the same molecule, the “functional status at MC4-R in cAMP assay” value (MC4-R [1]; normal system, 1 μM concentration where stated) was “partial agonist (intrinsic activity between 0.1 (10%) and 0.7 (70%) is classified as a partial agonist)”, the inhibition at 1 µM (MC1-R) was 6% and the Ki (MC1-R; read-out: Ki (nM) (NDP-α-MSH) In Normal System, MC1-R) was 1200 nM. For the same molecule, the inhibition at 1 µM (MC4-R [2]) was 99%, the “maximal decrease in food intake” value ([3]; 10 mg/kg, 24 hours) was 91% and the “Penile Erection ICV” value ([4]; ICV) was “No”. For the same molecule, the penile erection response ([4]; ICV, 0.3 to 3 nmole) was “no penile erection response”, the “Penile Erection IV” value ([4]; IV) was “No” and the penile erection response ([4]; IV, 0.3 to 30 μg/kg) was “no penile erection response”. The “decrease in food intake” value [5] was 32%.
